Reference: patent US9745299B2, “Substituted tricyclic benzimidazoles as kinase inhibitors” (SELVITA SA, priority 2012, dated 2017)
Counter-ions that a name gives are not always drawn.

Tests used:
[1] = tested on: A549 lung carcinoma; assay: Cytotoxic effects, A549; type: cell-based, human
[2] = tested on: SW480 cells; assay: MTS viability assay, SW480; type: cell-based; conditions: Homo sapiens, SW480, 72 hour incubation, read-out: IC50 [μM] SW-480 ED50
Excerpt: (§1) The viability of CDK8 expressing cells can be evaluated using a tetrazolium salt reduction cell-based assay. In viable cells this colorimetric assay can measure mitochondrial reduction of a tetrazolium component (MTS) into an […] formazan product. For MTS viability assay, human colon cancer cell lines were used (SW480 and HCT116 cell lines), containing elevated levels of CDK8 protein and highly dependent on its expression for proliferation [see, Firenstein et al. Nature 455 (25):547-551, (2008)]. These cell lines were used to determine the activity of the compounds provided herein to inhibit CDK8 in intact cells. Human tumor cell lines were obtained from ATCC (Rockville Md. USA). In each case, and by methods known to those practiced in the art of cell culture, vaiability was measured after 72 hour incubation with the compounds provided herein using a standard MTS protocol (CellTiter 96® AQueous Non-Radioactive Cell Proliferation Assay).
(§2) Briefly, cells were plated at 10,000-20,000 cells per well in DMEM medium supplemented with 10% fetal bovine serum. The compound plate was set up by aliquoting into column 1 of a 96-well plate, the negative control (DMSO), aliquoting into column 12 the positive control, and titrating the test compound in serial dilutions into columns 2-11. An aliquot from each well of the compound plate was transferred to the plated cells and then incubated at 37° C. in 5% CO2. 20 μL of MTS tetrazolium was added to each well of optical plate and the cells were incubated at 37° C. in 5% CO2 for 2 hours. The absorbance was measured at 490 nm using a microplate reader.

[3] = target: T1, CDK2/CyclinE (Homo sapiens, UniProt P24941); assay: ADP-Glo Kinase Assay, CDK2/CyclinE; type: biochemical; conditions: read-out: % inhibition at 1 μM CDK2/CyclinE
T1 construct: purchased Millipore, Billerica, Mass., USA
Protocol: (§3) Testing of the compounds described in this invention was carried out using the ADP-Glo™ Kinase Assay from Promega Corporation (Madison, Wis., USA).
(§4) The ADP-Glo™ Kinase Assay is a luminescent ADP detection assay to measure kinase activity by quantifying the amount of ADP produced during a kinase reaction. The kinase assay is performed in kinase assay buffer (5 mM MOPS, pH 7.5, 5 mM MgCl2, 0.4 mM EDTA, 1.5 mM DTT). Test samples initially dissolved in DMSO at 10 mM were diluted with the assay buffer to 1000 nM. A 30 μL volume/well of a mixture of substrates containing ATP (final ATP concentration in each kinase assay was equal to its apparent ATP Km).
(§5) The assay was performed in two steps: first, after the kinase reaction, an equal volume of ADP-Glo™ Reagent was added to terminate the kinase reaction and deplete the remaining ATP. Second, the Kinase Detection Reagent was added to simultaneously convert ADP to ATP and allowed the newly synthesized ATP to be measured using a luciferase/luciferin reaction. The luminescent signal generated was proportional to the ADP concentration produced and was correlated with kinase activity.

[4] = tested on: SK-MEL5 melanoma; assay: Cytotoxic effects, SK-MEL5; type: cell-based, human
[5] = tested on: Rec-1 B-cell lymphoma; assay: Cytotoxic effects, Rec-1; type: cell-based, human
[6] = target: T2, CDK9/CyclinT (Homo sapiens, UniProt P50750); assay: ADP-Glo Kinase Assay, CDK9/CyclinT; type: biochemical; conditions: read-out: % inhibition at 1 μM CDK9/CyclinT; further: ATP at apparent Km (26 µM)
T2 construct: purchased Proqinase, Freiburg, Germany
T2 sequence (P50750 whole entry): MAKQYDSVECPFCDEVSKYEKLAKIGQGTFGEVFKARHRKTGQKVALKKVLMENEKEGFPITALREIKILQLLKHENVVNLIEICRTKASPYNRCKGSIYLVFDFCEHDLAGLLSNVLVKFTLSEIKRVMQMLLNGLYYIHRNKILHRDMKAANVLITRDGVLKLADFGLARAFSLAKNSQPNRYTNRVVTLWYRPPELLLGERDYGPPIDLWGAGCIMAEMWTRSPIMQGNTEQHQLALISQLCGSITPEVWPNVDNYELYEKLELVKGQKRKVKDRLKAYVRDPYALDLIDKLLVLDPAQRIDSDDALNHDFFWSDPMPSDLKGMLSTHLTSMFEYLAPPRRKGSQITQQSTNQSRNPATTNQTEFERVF
T2 sequence (O60563 whole entry partner): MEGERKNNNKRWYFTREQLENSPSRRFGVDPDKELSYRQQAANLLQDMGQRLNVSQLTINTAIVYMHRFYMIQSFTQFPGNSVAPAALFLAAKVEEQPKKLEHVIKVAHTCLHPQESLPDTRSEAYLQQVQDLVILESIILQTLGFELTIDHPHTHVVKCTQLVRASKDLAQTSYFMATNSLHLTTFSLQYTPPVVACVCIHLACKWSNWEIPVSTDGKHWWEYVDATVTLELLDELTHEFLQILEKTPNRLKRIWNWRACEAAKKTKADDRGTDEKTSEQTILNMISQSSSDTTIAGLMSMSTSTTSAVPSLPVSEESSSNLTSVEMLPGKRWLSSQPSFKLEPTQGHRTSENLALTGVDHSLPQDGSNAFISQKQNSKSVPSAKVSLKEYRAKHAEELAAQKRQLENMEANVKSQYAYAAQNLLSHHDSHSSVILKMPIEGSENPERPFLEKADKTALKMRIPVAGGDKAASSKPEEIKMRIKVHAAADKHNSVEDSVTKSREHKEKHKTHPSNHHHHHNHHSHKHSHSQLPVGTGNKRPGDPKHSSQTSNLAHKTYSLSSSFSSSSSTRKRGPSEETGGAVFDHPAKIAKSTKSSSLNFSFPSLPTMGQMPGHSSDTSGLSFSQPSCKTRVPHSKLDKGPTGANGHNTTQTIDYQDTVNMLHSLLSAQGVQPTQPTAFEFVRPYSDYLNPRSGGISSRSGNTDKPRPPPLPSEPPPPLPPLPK
Protocol: as §3, §4, §5

[7] = tested on: HepG2 hepatocarcinoma; assay: Cytotoxic effects, HepG2; type: cell-based, human
[8] = tested on: MCF7 breast adenocarcinoma; assay: Cytotoxic effects, MCF7; type: cell-based, human
[9] = target: T3, CDK8/CyclinC (Homo sapiens, UniProt P49336); assay: ADP-Glo Kinase Assay, CDK8/CyclinC; type: biochemical; conditions: read-out: % inhibition at 1 μM CDK8/CyclinC; further: ATP at apparent Km (53 µM)
T3 construct: purchased ProQinase, Freiburg, Germany
T3 sequence (P49336 whole entry): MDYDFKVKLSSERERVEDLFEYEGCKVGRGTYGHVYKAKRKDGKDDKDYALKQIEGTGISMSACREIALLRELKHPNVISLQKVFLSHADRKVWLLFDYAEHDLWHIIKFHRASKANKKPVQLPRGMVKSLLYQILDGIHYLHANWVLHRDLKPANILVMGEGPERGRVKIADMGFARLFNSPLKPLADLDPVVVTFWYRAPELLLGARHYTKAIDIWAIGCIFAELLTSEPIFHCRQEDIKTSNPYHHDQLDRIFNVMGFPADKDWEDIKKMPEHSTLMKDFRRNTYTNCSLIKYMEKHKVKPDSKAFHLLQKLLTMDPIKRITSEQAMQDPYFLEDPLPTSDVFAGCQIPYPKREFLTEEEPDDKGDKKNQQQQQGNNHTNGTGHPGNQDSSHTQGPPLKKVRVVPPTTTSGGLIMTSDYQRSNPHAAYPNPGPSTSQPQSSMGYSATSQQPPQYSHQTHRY
T3 sequence (P24863 whole entry partner): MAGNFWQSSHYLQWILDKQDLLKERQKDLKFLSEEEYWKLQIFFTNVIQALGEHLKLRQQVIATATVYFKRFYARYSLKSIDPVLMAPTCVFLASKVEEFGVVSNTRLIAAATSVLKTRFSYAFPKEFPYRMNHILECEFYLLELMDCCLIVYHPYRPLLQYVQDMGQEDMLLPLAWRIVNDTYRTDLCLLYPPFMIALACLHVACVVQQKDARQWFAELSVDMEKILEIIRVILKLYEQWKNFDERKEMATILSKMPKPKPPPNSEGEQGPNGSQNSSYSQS
Protocol: as §3, §4, §5

[10] = tested on: HCT116 cells; assay: MTS viability assay, HCT116; type: cell-based; conditions: Homo sapiens, HCT-116, HCT116, 72 hour incubation, read-out: IC50 [μM] HCT116 ED50
Excerpt: as §1, §2

[11] = target: T4, CDK1/CyclinB (Homo sapiens, UniProt P06493); assay: ADP-Glo Kinase Assay, CDK1/CyclinB; type: biochemical; conditions: read-out: % inhibition at 1 μM CDK1/CyclinB; further: ATP at apparent Km (20 µM)
T4 construct: purchased Millipore, Billerica, Mass., USA
T4 sequence (P06493 whole entry): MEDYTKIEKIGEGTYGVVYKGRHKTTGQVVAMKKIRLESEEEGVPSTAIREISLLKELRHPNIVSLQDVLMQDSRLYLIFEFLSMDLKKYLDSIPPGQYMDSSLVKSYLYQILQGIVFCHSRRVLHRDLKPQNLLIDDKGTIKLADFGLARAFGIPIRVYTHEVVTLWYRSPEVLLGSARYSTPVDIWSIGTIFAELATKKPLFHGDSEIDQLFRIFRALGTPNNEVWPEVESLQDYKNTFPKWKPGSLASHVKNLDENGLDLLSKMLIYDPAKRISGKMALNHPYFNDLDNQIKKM
T4 sequence (P14635 whole entry partner): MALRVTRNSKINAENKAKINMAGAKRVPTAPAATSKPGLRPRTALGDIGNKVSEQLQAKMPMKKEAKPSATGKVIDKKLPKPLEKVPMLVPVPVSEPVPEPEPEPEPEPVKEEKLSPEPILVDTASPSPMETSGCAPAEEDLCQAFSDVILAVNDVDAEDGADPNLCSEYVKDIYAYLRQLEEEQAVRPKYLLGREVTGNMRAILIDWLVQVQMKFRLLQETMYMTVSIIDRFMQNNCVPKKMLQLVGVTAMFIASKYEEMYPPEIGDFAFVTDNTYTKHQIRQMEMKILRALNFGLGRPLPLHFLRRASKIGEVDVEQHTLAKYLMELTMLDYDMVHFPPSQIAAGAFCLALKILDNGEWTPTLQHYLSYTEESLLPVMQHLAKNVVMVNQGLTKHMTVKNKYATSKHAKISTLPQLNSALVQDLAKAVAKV
Protocol: Testing of the compounds described in this invention was carried out using the ADP-Glo™ Kinase Assay from Promega Corporation (Madison, Wis., USA). […] The ADP-Glo™ Kinase Assay is a luminescent ADP detection assay to measure kinase activity by quantifying the amount of ADP produced during a kinase reaction. The kinase assay is performed in kinase assay buffer (5 mM MOPS, pH 7.5, 5 mM MgCl2, 0.4 mM EDTA, 1.5 mM DTT). Test samples initially dissolved in DMSO at 10 mM were diluted with the assay buffer to 1000 nM. A 30 μL volume/well of a mixture of substrates containing ATP (final ATP concentration in each kinase assay was equal to its apparent ATP Km). […] The assay was performed in two steps: first, after the kinase reaction, an equal volume of ADP-Glo™ Reagent was added to terminate the kinase reaction and deplete the remaining ATP. Second, the Kinase Detection Reagent was added to simultaneously convert ADP to ATP and allowed the newly synthesized ATP to be measured using a luciferase/luciferin reaction. The luminescent signal generated was proportional to the ADP concentration produced and was correlated with kinase activity.

[12] = tested on: MV4-11 acute myelocytic leukemia (AML); assay: Cytotoxic effects, MV4-11; type: cell-based, human
[13] = target: T5, CDK5/p25 (Homo sapiens, UniProt Q00535); assay: ADP-Glo Kinase Assay, CDK5/p25; type: biochemical; conditions: read-out: % inhibition at 1 μM CDK5/p25; further: ATP at apparent Km (12 µM)
T5 construct: purchased Millipore, Billerica, Mass., USA
T5 sequence (Q00535 whole entry): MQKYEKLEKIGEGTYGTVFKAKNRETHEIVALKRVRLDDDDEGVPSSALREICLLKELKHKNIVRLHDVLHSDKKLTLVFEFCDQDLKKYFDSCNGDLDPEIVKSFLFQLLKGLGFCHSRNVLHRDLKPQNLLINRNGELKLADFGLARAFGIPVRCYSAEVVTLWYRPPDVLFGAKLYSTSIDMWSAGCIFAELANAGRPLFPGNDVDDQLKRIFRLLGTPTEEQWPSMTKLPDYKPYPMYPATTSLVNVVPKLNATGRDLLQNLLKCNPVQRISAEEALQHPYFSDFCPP
T5 sequence (Q15078 99-307 partner limits assumed): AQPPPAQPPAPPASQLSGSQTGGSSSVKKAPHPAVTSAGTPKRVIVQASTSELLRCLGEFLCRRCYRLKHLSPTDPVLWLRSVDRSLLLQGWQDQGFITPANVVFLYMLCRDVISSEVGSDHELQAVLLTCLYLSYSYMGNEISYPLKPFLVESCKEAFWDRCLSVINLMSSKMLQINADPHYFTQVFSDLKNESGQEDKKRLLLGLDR
Protocol: as §3, §4, §5

[14] = tested on: PC-3 adenocarcinoma prostate; assay: Cytotoxic effects, PC-3; type: cell-based, human

| IC50 [2] | inhibition at 1 µM [3] | inhibition at 1 µM [6] | inhibition at 1 µM [9] | IC50 [10] | inhibition at 1 µM [11] | inhibition at 1 µM [13] | SMILES | cytotoxic effects [1] | cytotoxic effects [4] | cytotoxic effects [5] | cytotoxic effects [7] | cytotoxic effects [8] | cytotoxic effects [12] | cytotoxic effects [14] |
| --- | --- | --- | --- | --- | --- | --- | --- | --- | --- | --- | --- | --- | --- | --- |
| 1.1 µM | 0% | 3% | 76% | 0.7 µM | 0% | 13% | Cc1c(Br)c(Br)c2c3c1nc(N1CCNCC1)n3CCC2 [Example 1K] | showed cytotoxic effects | showed cytotoxic effects | showed cytotoxic effects | showed cytotoxic effects | showed cytotoxic effects | showed cytotoxic effects | showed cytotoxic effects |
| 1 µM | 0% | 55% | 96% | 0.4 µM | 38% | 39% | Brc1c(Br)c2c3c(nc(N4CCNCC4)n3CCC2)c1Br [Example 6, 7,8,9-tribromo-2-(piperazin-1-yl)-5,6-dihydro-4H-imidazo[4,5,1-ij]quinoline maleate] | showed cytotoxic effects | showed cytotoxic effects | showed cytotoxic effects | showed cytotoxic effects | showed cytotoxic effects | showed cytotoxic effects | showed cytotoxic effects |
